“Also recorded” adds a separate entry of the source.
Legend:
Assay type in all cases: cell-based, human
LN229 cells = assay: LN229 scratch wound healing assay; conditions: for activity at 100 µM: Homo sapiens, LN-229, normalized to DMSO controls, read-out: LN229 scratch wound closure relative to DMSO controls
Source text: FIGS. 3(A-D) illustrate a histogram and images of the LN229 scratch wound assays. A. Histogram showing the effects of all soluble wedge-targeted compounds on LN229 scratch wound closure. Cell movement into the scratches was quantified from scratch wound widths at the start and end of the assay and normalized to the average movement of cells in the unblinded DMSO control samples. Data is presented as average percentages±standard error of the means (s.e.m.), and compound bar codes are shown on the x-axis. The majority of compounds were screened with an n=2. Some priority compounds were screened with 3-6 replicates. Representative endpoint images of samples treated with DMSO (B) and two priority inhibitors (C and D) are shown. The relative migration distances for each example are indicated.
(§1) Cells were seeded at a density of 2.7×10^4 cells per well into the internal wells of Incuyte1 Imagelock 96-well plates (Essen BioScience Inc., Ann Arbor, MI) and cultured overnight to form monolayers. Monolayers were wounded with an IncuCyte1 96-well Woundmaker Tool per the manufacturer's instructions. The outer wells were filled with PBS to buffer edge effects, and then the wounded monolayers were cultured in 100 μl of fresh media with compounds or DMSO (2×replicates at 100 μM or 1%, respectively) at 37 °C and 5% CO2. Images were captured every 4 hrs. using an Incucyte live cell imaging system equipped with the Scratch Wound Module. Scratch wound widths were calculated, per the manufacturer's instructions, at TO and at endpoint (typically T12 for LN229 and U87 cells and T8 for Gli36), which was taken as the last timepoint before wound closure. The cell migration distance was calculated from scratch widths [(T0Width−TendpointWidth)/2] and normalized to the average distance migrated by the DMSO controls. Values are presented as average percentages±standard errors of the means (s.e.m.). The majority of compounds were screened with an n of two, but the n for priority hits ranges from 2-6.
Scratch assays measure the ability of cells to migrate into a wound and close it creating a monolayer.

Gli36 cells [1] = assay: Gli36 scratch wound healing assay; conditions: 100 μM; for Effect on Gli36 migration (scratch wound closure): endpoint 8 h, in words
Procedure: FIGS. 4(A-D) illustrate a histogram and images showing the results of the Gli36 scratch wound assays. Selected inhibitors, activators, and control compounds identified in LN229 and/or U87 scratch wound closure assays were retested at 100 μM for effects on Gli36 migration. A. Histogram showing the normalized migration distance for each treated sample. Data is presented as average % movement±s.e.m, and compound bar codes are shown on the x-axis. The majority of compounds were screened with an n of 2-4. Representative endpoint images of samples treated with DMSO (B) and two priority inhibitors (C and D) are shown. The relative migration distances for each example are shown.
as §1
All inhibitors identified in the primary screens, a selection of U87-specific activators, and some apparently inert control compounds were rescreened in scratch wound assays using an additional glioma cell line (Gli36) (FIG. 4A).

Gli36 cells [2] = assay: Gli36 glioma sphere formation and growth assay; conditions: for Effect on Gli36 sphere formation: day 1; for Effect on Gli36 sphere formation / Effect on Gli36 sphere growth: in words
Procedure: FIGS. 6(A-E) illustrate a histogram and images showing the results of the Gli36 sphere formation and growth assays. Selected inhibitors, activators, and control compounds identified in LN229 and/or U87 scratch wound closure assays were retested at 100 μM in a secondary assay for glioma cell (Gli36) sphere formation and growth. A. Histogram showing the effects of the indicated compounds on Day 1 sphere footprint areas. Footprint areas were measured and normalized to the average footprint area of the unblinded DMSO-treated controls. On day 1, a larger footprint area indicates inhibition of aggregation. B. Histogram showing the effects of the indicated compounds on sphere growth. Changes in sphere footprint areas were calculated and normalized to the average size change of the unblinded vehicle-treated controls. On day 7, a smaller value indicates reduced growth. […] Data is presented as percentages±s.e.m. of 2-4 replicates. Representative images of samples treated with DMSO (C) and two priority inhibitors (D and E) are shown. Relative day 1 footprint areas and day 7 growth measurements are indicated for each example.
Cells were seeded at a density of 7500 cells per well into the internal wells of 96-well plates coated with 0.75% (wt/vol) PVA as previously described. Compounds were added (2×replicates per treatment) at the indicated final concentrations, and control wells were treated with matching concentrations of DMSO. The external wells of the plates were filled with PBS to buffer against edge effects, and the cells were incubated at 37 °C and 5% CO2 for 7 days. A Leica CTR6500 microscope fitted with an automated stage was used to capture brightfield images on day 1 and day 7, and sphere footprint areas were measured using Image J (v1.52a http://imagej.nih.gov/ij) as previously described. To quantify the effects of the compounds on day 1, the footprint areas of the treated wells were normalized to the average area of the matched DMSO control wells. To quantify the effects of the compounds on sphere growth, the change in the sphere footprint areas was calculated ([…]) and then normalized to the average size change of the matched DMSO samples. All values are presented as average percentages±s.e.m.

SMILES	Effect on LN229 cell morphology in scratch assay (LN229 cells; 100 μM)	activity at 100 µM (LN229 cells)	Effect on Gli36 cell morphology in scratch assay (Gli36 cells [1])	Effect on Gli36 migration (scratch wound closure) (Gli36 cells [1])	Effect on Gli36 sphere formation (Gli36 cells [2]; 100 μM)	Effect on Gli36 sphere growth (Gli36 cells [2]; 100 μM, day 7)	activity at 100 µM (Gli36 cells [2]; Homo sapiens, GLI36, 168 h, read-out: Gli36 sphere growth (indicated value; sample fell apart on day 1), growth could not be calculated, indicated as '0' growth)	Effect on LN229 scratch wound closure / migration (LN229 cells; 100 μM, in words)	Gli36 sphere appearance (Gli36 cells [2]; 100 μM, day 7)
O=C(NCc1nc(-c2ccncc2)no1)c1ccc(Cl)c(S(=O)(=O)NCc2ccccc2)c1 [Compound 247678791]	subtle effects on the morphology of LN229 cells	< 60%	did not dramatically affect Gli36 cell morphology	moderate inhibitor	slowed condensation of Gli36 cells	grew more slowly than controls	–	–	–
CCN(C(=O)CN1C(=O)NC(C)(CCC(C)C)C1=O)c1cccc2ccccc12 (stereo not shown) [Compound 247677616]	rounding	< 60%	dramatic effect on Gli36 cell morphology	–	completely blocked Gli36 sphere formation; also recorded: fell apart on day 1	–	0%	–	–
COc1cc(C)ccc1OCC(=O)Nc1nc(-c2c[nH]c(C(N)=O)c2)cs1 [Compound 247678835]	rounded with no ruffles	< 60%	reduced the appearance of processes and cell chains at the scratch edge	strong priority inhibitor	slowed aggregation of Gli36 cells	grew poorly	–	completely blocked the movement of cells into the scratch; also recorded: strongest inhibitor identified in the initial screen of LN229 migration	more optically translucent than control spheres on Day 7

Reference: US20260355168A1, “COMPOSITIONS AND METHODS FOR TREATING AND DETECTING CANCER” (CASE WESTERN RESERVE UNIVERSITY, priority 2022, published 2026)
